Measurements reported in patent publication US7141540B2, “Cyclodextrin grafted biocompatible amphilphilic polymer and methods of preparation and use thereof” (Genta Salus LLC, priority 2001, dated 2006).
Blank lines part the entries; values can stand above or below the molecule they belong to.

Columns and labels:
[1] = Stability of Taxol/CD complexes in 50% fetal bovine serum; format: physicochemical; details: paclitaxel complex, 50% Serum, room temperature
Experimental: (§1) Stability of Taxol/CD Complexes in 50% Serum or After 10 Fold Dilution in PBS:
(§2) • (A) Stability in 50% fetal bovine serum: Taxol/PEG-L8-AcCD (2.0 mg/50 mg in 1.0 ml PBS buffer) or Taxol/DMCD (0.5 mg/50 mg in PBS buffer) complex solutions were prepared as describe in method A of example 7. Fifty micro liters of the complex solutions were diluted with equal volume of fetal bovine serum respectively. Both mixtures were centrifuged at […] at room temperature after incubation at room temperature for 2 hours, 21 hours, 49 hours and 144 hours, respectively. The Taxol concentration in each supernatant was quantified by measuring the UV absorption at 230 nm. • (B) Stability after 10 fold dilution with PBS: Taxol/PEG-L8-AcCD (2.0 mg/50 mg in 1.0 ml PBS buffer) or Taxol/DMCD (0.5 mg/50 mg in PBS buffer) complex solutions were prepared as describe in example 10. Fifty micro liters of the complex solutions were diluted with 450 micro liter of PBS buffer, respectively. Both mixtures were centrifuged at […] at room temperature after incubated room temperature for 2 hours, 21 hours, 49 hours and 144 hours. The Taxol concentration in each supernatant was quantified by measuring the UV absorption at 230 nm.

[2] = at 50% CD concentrations; cited from earlier work
[3] = Stability of Taxol/CD complexes after 10 fold dilution with PBS; format: physicochemical; details: paclitaxel complex, 10X PBS, room temperature
Experimental: as §1, §2

[4] = Paclitaxel loading (solubilisation) by CD polymers or CD monomers; format: physicochemical
Experimental: Preparation of Paclitaxel Complexes with CD Polymers or CD Monomers
(A) Co-dissolving Method: This Method is Suitable for all Complexes with Water Soluble Polymers
The aqueous solution of polymer (or monomer controls) (usually about 100 mg/ml) was mixed with equal volume (usually 40 to 2000 ul) of the paclitaxel solution (Cpaclitael=0.1 to 8.0 mg/ml in methanol). The mixture was incubated at room temperature for about half an hour. Then the solvents were removed in a centrifuge concentrator at room temperature. The concentrated syrup or wax solid was reconstituted by adding water or PBS buffer to the original volume. The mixture was usually a clear or slightly cloudy solution after 30 minutes of reconstitution. The un-dissolved paclitaxel particles were removed either by ultra-filtration (0.2 um filter) or by centrifugation (20 minutes at 20,800 g and room temperature). The paclitaxel concentration in the clear supernatant was quantified by UV absorbance at […] by using the corresponding cyclodextrin polymer solution as the background calibration.
(B) Dialysis Method: This Method is Suitable for the Preparation of all Paclitaxel/polymer Complex Solutions:
The methanol solution of the polymer (usually […]) was mixed with equal volume (100 ul) of paclitaxel solution (1 to 3 mg/ml in methanol). The clear mixture was incubated at room temperature for about half an hour at room temperature, followed by dialysis (MWCO=12,000) overnight against 2 L water. The dialysis solution was usually a clear solution. Trace amounts of paclitaxel particles were removed either by ultra-filtration (0.2 um filter) or by centrifugation (20 minutes at 20,800 g and room temperature). The clear solution was stored at 4° C. or below.

human red blood cells = assay: Hemolysis on fresh human blood cells; format: cell-based; details: for Hemolysis (HC50, mM): human red blood cells, 30 minutes at 37° C., 0 to 50 mg/ml in PBS
Experimental: To further investigate the cytotoxicity of our polymers and their possible biodegradation products, their hemolysis effects were tested on fresh human blood cells in comparison with commercial CD monomers as describe below. The degree of hemolysis was reported as a percentage of the total efflux of hemoglobin in distilled water (Table 6)
1. Red blood cells were isolated from whole human blood by centrifugation at 1000 g for 10 minutes.
2. The plasma was removed and the red blood cells re-suspended in normal buffed saline (PBS, 0.154 M sodium chloride and 0.01 M phosphate, pH=7.4). The red blood cells were pelleted by centrifugation (1000 g for 10 minutes).
3. Step 2 was repeated twice to remove the heme released from damaged cells.
4. The final pellet was diluted with PBS to give a hematocrit of approximately 12 (or 5%) as determined by centrifugal sedimentation.
5.2 ml of polymer or cyclodextrin solutions of a series of concentrations from 0 to 50 mg/ml in PBS buffer) equilibrated at 37° C. in PBS buffer were equilibrated at 37° C. To this was added 100 ul of a red blood cell suspension followed by mixing of the sample with gentle inversion. The samples were incubated for 30 minutes at 37° C.
6. The intact cells and cellular debris were pelleted by centrifugation at 1000 g for 5 min. The supernatant was analyzed spectrophotometrically at 543 nm for released heme.

[5] = Drug amount in 1.0 ml water or PBS in the presence of 50 mg of polymer or other CD derivatives

Molecule: sulfobutylether-β-cyclodextrin [(SBE)7-CD]
Paclitaxel loading (mg/50 mg polymer) [4, 5]: <0.05 mg/50 mg polymer

Molecule: Mono-6-(8-amino-3,6-dioxy-octylamino)-6-deoxy-β-cyclodextrin [CD-L8-NH2]
toxicity compared with natural β-cyclodextrin (human red blood cells): much less toxic
Hemolysis (HC50, mM) (human red blood cells): 25 mM

Molecule: OC[C@H]1O[C@@H]2O[C@H]3[C@H](O)[C@@H](O)[C@@H](O[C@H]4[C@H](O)[C@@H](O)[C@@H](O[C@H]5[C@H](O)[C@@H](O)[C@@H](O[C@H]6[C@H](O)[C@@H](O)[C@@H](O[C@H]7[C@H](O)[C@@H](O)[C@@H](O[C@H]8[C@H](O)[C@@H](O)[C@@H](O[C@H]1[C@H](O)[C@H]2O)O[C@@H]8CO)O[C@@H]7CO)O[C@@H]6CO)O[C@@H]5CO)O[C@@H]4CO)O[C@@H]3CO [βCD, β-cyclodextrin]
Hemolysis (HC50, mM) (human red blood cells): 4.0 mM

Continued, in another order:

Remaining paclitaxel % in diluted solution ([1]; 0 hour): 100%
Remaining paclitaxel % in diluted solution ([1]; 2 hour): 100%
Remaining paclitaxel % in diluted solution ([1]; 21 hour): 100%
Remaining paclitaxel % in diluted solution ([1]; 49 hour): 100%
Remaining paclitaxel % in diluted solution ([1]; 144 hour): 100%
Remaining paclitaxel % in diluted solution ([3]; 0 hour): 100%
Remaining paclitaxel % in diluted solution ([3]; 2 hour): 86%
Remaining paclitaxel % in diluted solution ([3]; 21 hour): 13%
Paclitaxel loading (mg/50 mg polymer) ([4]; at day 1, drug amount in 1.0 ml water or PBS in the presence of 50 mg of CD derivative): ˜0.2 (at day 1) mg/50 mg polymer
Molecule: methyl-β-cyclodextrin [DM-CD]
paclitaxel dissolved [2]: ~33 mg/mL
Hemolysis (HC50, mM) (human red blood cells): 1.0 mM

Paclitaxel loading (mg/50 mg polymer) [4, 5]: <0.05 mg/50 mg polymer
Molecule: hydoxylpropyl β-cyclodextrin [HP-CD]
paclitaxel dissolved [2]: about 0.7 mg/ml
Hemolysis (HC50, mM) (human red blood cells): 35 mM
